Source: a melting point compilation (Tetko et al.; mined from patent text by program, amines drawn as free bases though some values may be those of a salt)

SMILES | melting point
O=C(O)COc1ccc2c(-c3ccccc3F)noc2c1 | 182 to 184 °C
CCCCC(=O)N(CCCOCc1ccccc1)Cc1ccc(-c2ccccc2-c2nnn[nH]2)cc1 | 112 to 115 °C
CNC(=S)C1(c2cncc(Br)c2)CCCCC1=O (configuration not stated) | 201 to 203 °C
Clc1ccc(-c2nc3cccnc3n2Cc2ncc[nH]2)cc1 | 184 to 185 °C
CCCc1ccc(S(=O)(=O)Nc2ccc(OC)nc2)cc1 | 93 to 94 °C
COc1ccc(CC(=O)N2CCC3(CC2)Cc2ccccc2O3)cc1 | 87 to 88 °C
COc1ccc(-c2csc(C=CC(=O)O)c2)cc1C(C)(C)C | 206 to 207 °C
O=C1CCC(c2ccc(C3CCCC3)cc2)=NN1 | 191 to 192 °C
OC(CCl)COc1cccc(-c2nc(C(F)(F)F)c[nH]2)c1 (configuration not stated) | 181 to 183 °C
CC(C)(C)c1cc(I)c2c(c1)CNC1(CCCCC1)O2 | 112 to 114 °C
CC(C)C(C)CCC(C)C1CCC2C3CCC4CC(OC(=O)c5ccccc5)CCC4(C)C3CCC12C (configuration not stated) | 232 to 234 °C
COc1cccc(NN=C(Sc2ccc(Cl)cc2)C(C)=O)c1 | 107 to 108 °C
CC(C)(C(N)=O)C(O)(Cn1cncn1)c1ccc(Cl)cc1Cl (configuration not stated) | 162 to 163 °C
CC1SC(=O)NN=C1c1ccc2c(c1)C(=NNC(N)=S)C(=O)N2 (configuration not stated) | 300 °C
CC(C)(Oc1ccc(Cl)cc1)C(=O)NCCCn1ccnc1 | 83 to 84 °C
CCCc1ccc(OCc2ccc(OCc3nc(-c4ccccc4)oc3C)cc2)c(CC(=O)O)c1 | 116 to 117 °C
O=c1oc2c(O)c(O)ccc2c2ccccc12 | 254 to 256 °C
CC(C)c1ccc(N(Cc2ccc(OCc3ccccc3)cc2)C(=O)C2CCCc3ccccc32)cc1 (configuration not stated) | 120 to 121 °C
O=C(O)c1ccc(OCCCON=Cc2cn(Cc3ccccc3)c3ccccc23)c(-c2ccc(C(F)(F)F)cc2)c1 | 193 to 194 °C
CCN1C(=O)N=NC1c1ccc(Cl)cc1 (configuration not stated) | 190 to 197 °C
CCOC(=O)c1ncn2c(C(F)F)cc(-c3ccc(C(F)(F)F)cc3)nc12 | 219 °C
CCOC(=O)c1cnn(-c2cccc(Cl)c2)c1Cl | 61 to 63 °C
ON=C1Cc2ccccc2C=Cc2ccccc21 | 191 to 192 °C
Cc1cc2c(nc1C(O)c1cccnc1)CCCCC2 (configuration not stated) | 124 to 126 °C

SMILES | melting point
CC(=O)N1CCN(c2ccc(C3CCS(=O)(=O)NC3)cc2)CC1 (configuration not stated) | 196 to 197 °C
O=Cc1ccc(OS(=O)(=O)C(F)(F)F)c2ccccc12 | 44 to 47 °C
Cc1ccc2c(c1)N=C(N1CCN(C)CC1)c1c(sc3ccccc13)N2 | 184 to 186 °C
OC(CC1CCN(Cc2ccccc2)CC1)c1ccc(F)cc1 (configuration not stated) | 84 to 86 °C
CSc1nccc(-c2c3cccnc3n3c(N)nccc23)n1 | 223 to 224 °C
CN(C)C(=S)Nc1ccccc1N1CCOCC1 | 150 to 152 °C
C=COc1nc2c(c3ccccc13)c1cc(Cl)ccc1n2C | 121 to 124 °C
COc1cc(C=O)ccc1OCc1ccc2ccccc2c1 | 107 to 108 °C
O=C(O)Cc1ccccc1OCc1cn(-c2ccc(C(F)(F)F)cn2)nc1C1CCCCC1 | 131 to 132 °C
CCN(CC)c1c([N+](=O)[O-])cc(C(F)(F)F)c(Cl)c1[N+](=O)[O-] | 35 to 36 °C
CCN(CC)CCN(c1cc(OC)c(C)cc1[N+](=O)[O-])S(=O)(=O)c1ccc(C)cc1 | 114 °C
OC1CSC(Oc2ccc(-c3cccnc3F)nc2Cl)C(O)C1O (configuration not stated) | 153 °C
Cc1sc2c(c1C)C(c1ccc(Cl)cc1)=N[C@@H](CC(=O)Nc1ccc(O)cc1)c1nnc(C)n1-2 | 215 to 220 °C
CC(C)(C)C(=O)Nc1nc(O)c2cc(C=CCOC3CCCCO3)cnc2n1 (configuration not stated) | 166 to 167 °C
CCSc1nccn1-c1ccc(O)cc1 | 165 °C
CC(C)(C)c1cc(-c2coc3c(C(C)(C)C)cc(C(C)(C)C)cc23)c(O)c(C(C)(C)C)c1 | 236 to 238 °C
CCOC(=O)c1cccc(-c2nc(-c3ccc(C(C)(C)C)cc3)cs2)c1 | 96 to 97 °C
Cc1cccc(-c2[nH]nc(C(F)(F)F)c2-c2ccncc2)c1 | 237 to 239 °C
CC=Cc1cc(OC)cc2cc(-c3ccc(OC)cc3)oc12 | 116 to 118 °C
CC(C)CCC1(c2ccccc2)CC(O)=C(Sc2ccccc2C(C)C)C(=O)O1 (configuration not stated) | 64 to 66 °C
Cn1cnc2nc(-c3ccc(C(F)(F)F)cc3)nn2c1=S | 270 to 272 °C
O=C(NCc1cccc(C(F)(F)F)c1)c1ccc2n1Cc1ccccc1N(C(=O)CSc1ccc(Br)cc1)C2 | 102 °C
COc1ccc(C2CNCc3c(C)cccc32)cc1OC (configuration not stated) | 86 to 88 °C
CCN(C)c1nc2cccc(C(=O)OC)c2n1Cc1ccc(-c2ccccc2C#N)cc1 | 66 to 69 °C

SMILES | melting point
COc1cc2c(cc1OC)C(=O)C(=Cc1cccc([N+](=O)[O-])c1)CC2 | 186 to 187 °C
O=C(C=Cc1ccc(Cl)cc1)C(Cc1ccccc1)c1ccccc1 (configuration not stated) | 113 to 115 °C
CN1CCN(Cc2ccc(-c3cc4ncnc(Nc5ccc6[nH]ccc6c5)c4s3)cc2)CC1 | 143 to 150 °C
CCCN1N=C2C(=Cc3ccccc3)COCC2C1c1ccccc1 (configuration not stated) | 114 to 115 °C
COC(=O)C1=C(C=O)NC(C)=C(C(=O)OCC(C)C)C1c1ccccc1C#N (configuration not stated) | 152 to 154 °C
COC(=O)c1ccc(-c2ccc(C(F)(F)F)cc2)c(COC(C)=O)c1 | 94 °C
O=[N+]([O-])c1cc(Cl)c(Br)cc1Cl | 50 to 53 °C
Cc1ccc(S(=O)(=O)N2CC2)cc1 | 51 to 52 °C
CS(=O)(=O)c1ccccc1C(=O)C(C#N)C(=O)C1CC1 (configuration not stated) | 155 °C
CC(C)(C=O)Oc1ccc(Cl)cc1C#N | 85 to 88 °C
O=C(CCCCCCCCCCC(=O)Oc1cc(O)cc(O)c1)Oc1cc(O)cc(O)c1 | 140 to 145 °C
Fc1ccc(C(CCCN2CCN(c3cc4ccccc4cn3)CC2)c2ccc(F)cc2)cc1 | 116 to 118 °C
Cc1c(NC(=O)CC(C)(C)C)c(C)c2c(c1-c1ccc(N(C)C)nc1)OCC2c1ccc(C(C)C)cc1 (configuration not stated) | 217 to 220 °C
COc1ccc(C=CC(=O)C2C(=O)C=C(C)OC2=O)cc1 (configuration not stated) | 205 to 207 °C
CN1C(C2CCCCC2)Nc2ccc(S(=O)(=O)N3CCOCC3)cc2S1(=O)=O (configuration not stated) | 243 to 245 °C
O=Cc1ccn(-c2cc3c(cc2C(F)(F)F)[nH]c(=O)c(=O)n3CC(=O)O)c1 | > 250 °C
CCCN1CCOc2cccc3nc4c(c1c23)CCCC4 | 74.5 to 75.5 °C
Cc1cccc2c1N(N=C=O)C(=O)CN=C2 | 206 to 212 °C
CCOC(=O)CSc1ccc([N+](=O)[O-])cc1 | 43 to 45 °C
CCCCP(CCCC)(CCCC)=C1CC(=O)OC1=O | 70 °C
COc1cc2cc3ncc(C#N)c(Nc4ccc(Oc5ccccc5)c(Cl)c4)c3cc2cc1OCCN1CCOCC1 | 251 to 253 °C
CC1(C)CC2(CC(C)(C)N1c1nc(Cl)nc(N3CCOCC3)n1)OCCO2 | 154 to 156 °C
Cc1nc(-c2cnccn2)no1 | 100 to 104 °C
CC(=O)Oc1ccc(N2CCC(=O)c3ccccc32)cc1 | 130 to 132 °C
